“And” between values parts separate entries of the source, which are not always exact repeats. Equal values may be shown once.
Key:
[1] = Stability tests (accelerated and long-term) of salt and crystal forms; format: physicochemical; details: for Relevant substance, Single impurity / Relevant substance, Total impurities / Content determination: HPLC; for Content determination: content of C27H32O16; for pH: solution 5 mg per 1 ml in water; for Calcium element: ICP-MS
Description: The crystal form A for the stability data in the following table is prepared by the method of Example 1. The intermediate was adopted, water was used as a system, calcium carbonate was added for reaction, the solution was filtered and then allowed to stand for crystallization, and subjected to suction filtration, and the filter cake was washed with water and dried by suction, and dried under reduced pressure at 30° C. for 4-6 hours to obtain the crystal form A.
For stability tests and inspection methods, please see the attached stability solutions and quality standards.
[Character] Ocular estimate method: this sample was a yellow powder.
[Examination] PH value: this sample was taken and added with water to make a solution containing 5 mg per 1 ml. According to the pH value determination method (Chinese Pharmacopoeia 2020 Edition Fourth General Rule 0631), the pH value should be 5.0-7.0.
Relevant substances. Determination of relevant substances was performed according to high-performance liquid chromatography (Chinese Pharmacopoeia 2020 Edition Fourth General Rule 0512).
Test sample solution. An appropriate amount of this sample was taken, accurately weighed, dissolved by addition of a diluent, and diluted quantitatively to prepare a solution containing 1.0 mg per 1 ml. The solution was shaken well, filtered through a microporous filter membrane (0.45 μm), and the subsequent filtrate was taken.
Chromatographic conditions. Octadecylsilane bonded silica gel was used as a filler: […] potassium dihydrogen phosphate solution (1.36 g of potassium dihydrogen phosphate was taken into a 1000 mL measuring flask, dissolved by addition of water, and diluted to the scale) was used as a mobile phase A, methanol was used as a mobile phase B, and gradient elution was performed according to the following table; the detection wavelength was 375 nm; and the injection volume was 5 μl.
Limit If there were impurity peaks in the chromatogram of the test sample solution, the area of a single impurity peak shall not be greater than 0.005 times (0.5%) the total peak area, and the sum of the areas of each impurity peak shall not be greater than 0.015 times (1.5%) the total peak area. Chromatographic peaks less than 0.02% of the peak area of the main component can be ignored.
Water content This sample was taken, and according to the method for water content determination (Chinese Pharmacopoeia 2020 Edition Fourth General Rule 0832 First Method), the water content shall not exceed 15.0%.
Calcium element Determination of calcium element was performed according to inductively coupled plasma mass spectrometry (Chinese Pharmacopoeia 2020 Edition Fourth General Rule 0412).
[Content determination] Content determination was performed according to high-performance liquid chromatography (Chinese Pharmacopoeia 2020 Edition Fourth General Rule 0512).
Chromatographic conditions. Octadecylsilane bonded silica gel was used as a filler, methanol-acetonitrile-water-phosphoric acid (26:2:72:0.04) was used as a mobile phase, and detection wavelength was 403 nm; and the injection volume was 10 μl.
Determination method. The test sample solution and comparative sample solution were accurately measured, and injected into the liquid chromatograph separately, and the chromatogram was recorded. The content of C27H32O16 in the test sample was calculated by the peak area according to the external standard method.

[2] = tested on: cerebral ischemia-reperfusion in rats; test: Cerebral ischemia-reperfusion rat model, comparative test of calcium salt YN17 and sodium salt YN17-ST; format: in vivo; details: 10 mg/kg tail vein after 1 h ischemia; 24 h; Mean ± SEM; model 51.37 ± 2.66
Description: Establishment of cerebral ischemia-reperfusion rat models. Rats were anesthetized with pentobarbital sodium (45 mg/kg), the neck skin was prepared, the surgical skin was disinfected with iodophor, the neck skin was cut in the middle, the neck muscles were separated, and the left common carotid artery (CCA) was separated until the branches of the internal carotid artery (ICA) and external carotid artery (ECA) were exposed. […]
Determination of the extent of cerebral infarction. […] The area of each brain slice and the area of the infarcted area were measured by Image Pro software, and the percentage of the area of focuses of infarct to the total area was calculated.
The models were established and administered according to the similar method described above (YN17 (10 mg/kg) and YN17-ST (10 mg/kg) were injected into the tail vein immediately after blood supply to the middle cerebral artery of the rats was restored, and 5% glucose was injected into the tail vein in the model group. The rats were euthanized under anesthesia 24 hours after drug administration, and the extent of cerebral infarction was measured. The results were as follows: […]

[3] = tested on: H9c2 cells; test: Survival rate of H9c2 cells after oxygen-glucose deprivation/reperfusion (OGD/R); format: cell-based; details: 20, 40 and 80 μg/ml
Description: (§1) Establishment of cellular oxygen-glucose deprivation/reperfusion (OGD/R) models. […] ischemia was simulated by incubation in a three-gas incubator (95% N2, 5% CO2) using sugar-free culture medium for 8-h culture, followed by transfer to a normal CO2 incubator for 12-h culture to simulate reperfusion.

[4] = tested on: H9c2 cardiomyocytes; test: Hoechst 33342 staining method for cell apoptosis detection (OGD/R); format: cell-based
Description: as §1
(§2) Hoechst 33342 staining method for cell apoptosis detection. H9c2 cardiomyocytes were inoculated into a 6-well plate at a density of 2×10^5 cells/well. When the cells were completely adhered to the wall and grew to an appropriate degree of confluence, the cells were divided into a control group, a YN17 80 μg/ml group, a model group, and an OGD/R+80 μg/ml group. In the blank group, 2 mL of a fresh culture medium was added to each well and cultured in a CO2 incubator. The same amount of sugar-free DMEM was added to each well in the model group. After culture in a three-gas incubator for 8 h, the sugar-free DMEM was replaced with a fresh culture medium and transferred to a CO2 incubator for additional 12-h culture. The administration group was pretreated with different concentrations of YN17 for 24 h before OGD/R modeling. […] After the treatment of each group, staining was performed according to the instructions of the Hoechst 33342 staining solution, and the nucleus morphology and fluorescence intensity of each group were observed under a fluorescence microscope.

[5] = tested on: H9c2 cardiomyocytes; test: Flow cytometry (Annexin V-FITC) for cell apoptosis detection (OGD/R); format: cell-based; details: OGD/R + 80 μg/ml, 24 h pretreatment; control 7.9%, model 20.3%
Description: as §1
as §2, with “group.” for “group. After culture in a three-gas incubator for 8 h, the sugar-free DMEM was replaced with a fresh culture medium and transferred to a CO2 incubator for additional 12-h culture. The administration group was pretreated with different concentrations of YN17 for 24 h before OGD/R modeling.”
Flow cytometry for cell apoptosis detection. […] After the treatment of each group, staining was performed according to the instructions of the Annexin V-FITC cell apoptosis detection kit, and cell apoptosis was detected by a flow cytometer.

[6] = tested on: cerebral ischemia-reperfusion rat models; test: Cerebral ischemia-reperfusion (MCAO) rat model, different doses of YN17; format: in vivo, rats; details: for Symptom score: 24 h after administration, 0-5 points, model 3.3 ± 0.7; for Symptom score / Percentage of whole brain tissue infarction (%): Mean ± SD; for content of GSH-px in serum / content of SOD in serum: 24 h after modeling, p<0.001; for Percentage of whole brain tissue infarction (%): 24 h, TTC staining, model 17.61 ± 7.45
Description: Establishment of cerebral ischemia-reperfusion rat models. Rats were anesthetized with pentobarbital sodium (45 mg/kg), the neck skin was prepared, the surgical skin was disinfected with iodophor, the neck skin was cut in the middle, the neck muscles were separated, and the left common carotid artery (CCA) was separated until the branches of the internal carotid artery (ICA) and external carotid artery (ECA) were exposed. The proximal end of the common carotid artery was ligated, the distal end of the common carotid artery was clamped with an artery clip, an incision was made between the two ligated ends of the common carotid artery, the MCAO suture was inserted, and the suture was loosely ligated to the common carotid artery. The MCAO suture was inserted into the internal carotid artery, so that the suture reached the branches of the internal carotid artery to the middle cerebral artery (MCA), blocking the blood supply of the MCA and causing ischemia, the MCAO suture was fixed, and the surgical incision was sutured. After 1 h of ischemia, the MCAO suture was withdrawn into the common carotid artery to restore blood supply to the middle cerebral artery.
Drug administration. After the surgery, the rats were immediately injected with YN17 (5 mg/kg, 10 mg/kg and 20 mg/kg) via the tail vein, while the positive control group was injected with 3 mg/kg of edaravone via the tail vein. The rats were euthanized under anesthesia 24 hours after drug administration.
Animal neurobehavioral assessment. 24 hours after administration, the activity of the rats after landing was observed, and the behavior disorders of the rats were scored. The scoring method was as follows: • 0 points: no loss of neurological function and normal activity; • 1 point: failure to fully extend the left forepaw on the opposite side of the lesion; • 2 points: failure of the paralyzed side to resist the thrust from the opposite side; • 3 points: circling to the left side when crawling (tail-chasing sign); • 4 points: falling to the paralyzed side when shaking or walking; and • 5 points: trance or loss of consciousness.
Determination of the extent of cerebral infarction. The rats were euthanized under anesthesia 24 hours after drug administration. The brain was removed and rinsed with normal saline at 4° C. The brain was frozen at −80° C. for 10 min, and coronal slices with a thickness of 2 mm were cut from posterior to anterior, incubated in a 1% TTC solution for 10 min at 37° C., and fixed with formalin overnight after staining. The photos of the brain slices were taken and saved. The area of each brain slice and the area of the infarcted area were measured by Image Pro software, and the percentage of the area of focuses of infarct to the total area was calculated.

[7] = Accelerated 6 months, 40° C. ± 2° C./75% ± 5% RH
[8] = Long-term 6 months, 25° C. ± 2° C./60% ± 5% RH
[9] = 3 mg/kg tail vein, listed as edaravone

Compound: O=C(C=Cc1ccc(O)cc1)C1=C(O)C(C2OC(CO)C(O)C(O)C2O)=C([O-])C(O)(C2OC(CO)C(O)C(O)C2O)C1=O.[Na+] (stereo not shown) [YN17-ST]
- Character ([1]; 0 months): Yellow
- Water content ([1]; 0 months): 2.3%
- Relevant substance, Single impurity ([1]; 0 months): 0.36%
- Relevant substance, Total impurities ([1]; 0 months): 0.95%
- Content determination ([1]; 0 months): 95.3%
- pH ([1]; 0 months): 6.0
- Character [1, 7]: Yellow
- Water content [1, 7]: 7.3%
- Relevant substance, Single impurity [1, 7]: 6.41%
- Relevant substance, Total impurities [1, 7]: 9.53%
- Content determination [1, 7]: 81.5%
- pH [1, 7]: 6.8
- Character [1, 8]: Yellow
- Water content [1, 8]: 5.7%
- Relevant substance, Single impurity [1, 8]: 1.86%
- Relevant substance, Total impurities [1, 8]: 3.02%
- Content determination [1, 8]: 91.7%
- pH [1, 8]: 6.4
- Percentage of hemispheric tissue infarction (%) [2]: 23.35% and 23.35 ± 7.37 %

Compound: O=C(/C=C/c1ccc(O)cc1)C1=C(O)C([C@@H]2O[C@H](CO)[C@@H](O)[C@H](O)[C@H]2O)=C([O-])[C@@](O)([C@@H]2O[C@H](CO)[C@@H](O)[C@H](O)[C@H]2O)C1=O.[Ca+2].[OH-] [YN17, (S)-3,6-dihydroxy-4-((E)-3-(4-hydroxyphenyl)acryloyl)-5-oxo-6-((2R,3R,4S,5S,6R)-3,4,5-trihydroxy-6-(hydroxymethyl)tetrahydro-2H-pyran-2-yl)-2-((2S,3R,4R,5S,6R)-3,4,5-trihydroxy-6-(hydroxymethyl)tetrahydro-2H-pyran-2-yl)cyclohexyl-1,3-diene-1-hydroxycalcium]
- Character ([1]; 0 months): Yellow
- Water content ([1]; 0 months): 9.9%
- Relevant substance, Single impurity ([1]; 0 months): 0.25%
- Relevant substance, Total impurities ([1]; 0 months): 0.25%
- Content determination ([1]; 0 months): 97.0%
- Calcium element ([1]; 0 months): 3.19%
- pH ([1]; 0 months): 5.9
- Character [1, 7]: Yellow
- Water content [1, 7]: 10.1%
- Relevant substance, Single impurity [1, 7]: 0.25%
- Relevant substance, Total impurities [1, 7]: 0.54%
- Content determination [1, 7]: 96.5%
- Calcium element [1, 7]: 3.26%
- pH [1, 7]: 5.8
- Character [1, 8]: Yellow
- Water content [1, 8]: 10.7%
- Relevant substance, Single impurity [1, 8]: 0.25%
- Relevant substance, Total impurities [1, 8]: 0.32%
- Content determination [1, 8]: 96.7%
- Calcium element [1, 8]: 3.21%
- pH [1, 8]: 5.9
- Stability (comparison of salt forms, relevant substances and contents) ([1]; summary of Table 1 and Table 2): very stable
- survival rate of cells [3]: can improve the survival rate of cells in different degrees
- apoptosis characteristics of nuclei without OGD/R ([4]; 80 μg/ml group without OGD/R): no obvious apoptosis characteristics
- number of densely and heavily stained cell nuclei (apoptosis) ([4]; OGD/R + 80 μg/ml, 24 h pretreatment): significantly reduced
- apoptosis rate [5]: 13.3%
- Symptom score ([6]; 5 mg/kg tail vein): 2.8 ± 1.0
- content of GSH-px in serum ([6]; 5 mg/kg, 10 mg/kg and 20 mg/kg): significantly increase
- content of SOD in serum ([6]; 10 mg/kg and 20 mg/kg): significantly increase
- Percentage of hemispheric tissue infarction (%) [2]: 20.47% and 20.47 ± 3.56 %

Compound: CC1=NN(c2ccccc2)C(=O)C1 [Edaravone, edaravone]
- Percentage of whole brain tissue infarction (%) ([6]; 3 mg/kg tail vein): 10.58 ± 5.31 %
- Percentage of whole brain tissue infarction (%) [6, 9]: significantly inhibit
- Symptom score ([6]; 3 mg/kg tail vein): 2.1 ± 1.3
- Symptom score [6, 9]: significantly improve
- content of GSH-px in serum ([6]; 3 mg/kg): significantly increase
- content of SOD in serum ([6]; 3 mg/kg): significantly increase

Reference: patent publication US20250304609A1, “POLYMORPHIC FORM OF CHALCONE GLYCOSIDE COMPOUND, AND PREPARATION METHOD AND APPLICATION THEREOF” (ZHEJIANG YONGNING PHARMACEUTICAL CO., LTD., priority 2022, published 2025)
